# Test results reported in patent publication US7314633B2, “Carboxylate-gated-nitroxide (CGN) compounds and compositions and methods of use thereof” (SynZyme Technologies LLC, priority 2001, dated 2008).
# How the values were obtained:
# [1] = test system: cultured rat cortical neurons; assay: SIN-1 (peroxynitrite generator) toxicity in cultured rat cortical neurons (MTT); format: cell-based; details: SIN-1 1 mM, compound added 15 minutes prior
# Method: Primary neuronal cultures were made from forebrains of fetal rat pups (embryonic day 15). The cells were dispersed by repeated mechanical trituration in neuronal culture medium (MEM Eagle (Sigma, M4526), supplemented with glutamine (2 mM), penicilin-streptomycine (50 Units/ml-0.05 mg/ml), heat-inactivated horse serum (10%), fetal bovine serum (10%), glucose (0.5% or 28 mM). Following centrifugation (900 g; 5 min), the cells were placed onto poly-L-lysine-coated 96 well plates at a density of […]. Cytotoxicity was induced in the cells according to a published procedure (Carroll et al 2000). SIN-1 (3-morpholinosydnonimine, Sigma), a PN generator, was dissolved in 50 mM phosphate (pH 5.0) just prior to use, and added to each well to give the final concentration of 1 mM. […] Neuronal viability was quantitatively determined using the colorimetric MTT assay. MTT was added to each well such that the final concentration of the dye was 0.15 mg/ml. Plates were then returned to the incubator for 1 hour at which time unincorporated MTT was removed, and the plates allowed to air dry. The purple formazan product present in viable cells was then dissolved by adding acidified isopropanol (with 0.1 N HCl in) and the absorbance intensity (540 nm) was measured using a 96 well plate reader. % Control=(Test A540/Mean Control)×100%.
# [2] = Inhibition of peroxynitrite-dependent nitration of HPA; format: biochemical; details: 1 mM HPA, 1 mM peroxynitrite, pH 6.5
# Method: Peroxynitrite was made by a procedure described previously. Solution of 1 mM 4-hydroxyphenylacetic acid (HPA, Sigma) were made in 100 mM sodium phosphate at pH 6.5. […] Peroxynitrite was added at a final concentration of 1 mM to start the nitration. […] The nitration was followed spectrophotometrically at 405 nm. The concentration of 4-hydroxy-3-nitrophenylacetate was determined spectrophotometrically (430=4400 M^−1 cm^−1) after the pH of reaction mixtures were increased to 10-11 with NaOH.
# [3] = test system: cultured rat cortical neurons; assay: Hemoglobin toxicity in cultured rat cortical neurons (MTT); format: cell-based; details: hemoglobin 10 uM, 24 hours
# Method: E-TOPS is neuroprotective in a model of hemorrhagic transformation in stroke. Primary neuronal cultures were made from forebrains of fetal rat pups (embryonic day 15). The cells were dispersed by repeated mechanical trituration in neuronal culture medium (MEM Eagle (Sigma, M4526), supplemented with glutamine (2 mM), penicilin-streptomycine (50 Units/ml-0.05mg/ml), heat-inactivated horse serum (10%), fetal bovine serum (10%), glucose (0.5% or 28 mM). Following centrifugation (900 g; 5 min), the cells were placed onto poly-L-lysine-coated 96 well plates at a density of […]. Hemoglobin in saline was added at 10 uM final concentration and ETOPS were added at 10 uM, 1 uM, and 0.1 uM final concentration. 24 hours after incubation neuronal viability was quantitatively determined using the colorimetric MTT assay. MTT was added to each well such that the final concentration of the dye was 0.15 mg/ml. Plates were then returned to the incubator for 1 hour at which time unincorporated MTT was removed, and the plates allowed to air dry. The purple formazan product present in viable cells was then dissolved by adding acidified isopropanol (with 0.1 N HCl in) and the absorbance intensity (540 nm) was measured using a 96 well plate reader. % Control=(Test A540/Mean Control)×100%.
# [4] = Water/octanol partition measured by EPR; format: physicochemical; details: 15 minutes, TOPS = presumed product after NaOH hydrolysis of DE-TOPS
# Method: (§1) After 15 minutes, a 40 μl sample of water or oil was taken for EPR spectral analysis. […] The solution was neutralized with hydrochloric acid and added to 1 ml of water and 2 ml of octanol. The mixture was allowed to partition, and after 15 minutes, a 40 μl sample of water or oil was taken for EPR spectral analysis. EPR spectral were taken using a Varian E9 spectrophotometer. Sweep width was 100 G, frequency was 9.535 GHz, microwave power was […] and the modulation frequency was 100 Hz.
# [5] = Chemical hydrolysis of esters by NaOH or KOH, followed by EPR; format: physicochemical; details: sodium hydroxide (NaOH), aqueous, EPR pre- and post-hydrolysis
# Method: as §1
# 20 mg of ^14N-^15N-TE-TOPS was mixed in 1 ml of 10 mM KOH and allowed to incubate overnight at room temperature. The solution was neutralized with hydrochloric acid. EPR spectral were taken using a Varian E9 spectrophotometer. Sweep width was 100 G, frequency was 9.535 GHz, microwave power was […] and the modulation frequency was 100 Hz.
# [6] = S-band EPR imaging of penetration and compartmentalization in human skin; format: in vivo; details: human volunteer forearm, 3 μL 100 mM in DMSO, topical, by eight hours
# Method: Preliminary S-band EPR spectroscopy and imaging experiments using DETOPS were performed on the skin of a human volunteer. […] Five minutes later, when the deposited solution dried, a specially designed positioning holder with a 7 mm diameter well and bottom disk that locked into a well in the resonator cap was attached to the skin to fix this region of skin to the surface resonator See, “In vivo EPR Imaging of a Distribution and Metabolism of Nitroxide Radicals in Human Skin,” He et al., J. of Magnetic Resonance 148, 155-164 (2001). EPR and EPRI measurements were then started. Measurements on the volunteer were performed for 15 to 20 minutes periods after which there were 30-minute rest periods in which the volunteer removed the arm from the resonator and the magnet. This holder fixed the skin positioning and assured a constant filling factor of the loaded resonator. The positioning holder was left attached to the arm for the entire series of measurements lasting up to 8 hours.
# Referring to FIG. 23, a color-coded image of CNO penetration and compartmentalization in human skin is shown. […] The measurements were performed using S-band (2.2 GHz) EPR imaging system with a specially designed surface resonator as described in He et al., J. of Magnetic Resonance 148, 155-164 (2001). The dotted line marks the surface of the skin. […]
# hairless mice = test system: hairless mice
# Method: Topical application was daily 10 minutes prior to UVB radiation. UVB dose was 200 mJ/cm2 during 15 minutes. UVB lamp has spectrum distribution of 290-310 nm at 80% below 310 nm at 20%.
# Same protocol as in example 13 was used for this study.
# Rhino mouse = assay: Anti-wrinkle effect in Rhino mouse exposed to UVB; format: in vivo; details: compared with Retin-A
# Method: To determine the advantage of CGN compared to commercially available topical therapies, BE-TOPS, Retin-A, and a placebo were administered to the skin of mice exposed to alternate days of UVB radiation.
# [7] = Metabolism and excretion after topical application (EPR of urine and plasma); format: in vivo, mouse; details: after 6 hours; 10 day daily topical application
# [8] = In vivo plasma half-life by EPR, co-administration of 14N E-TOPS and 15N Tempol
# Method: Plasma half-life is measured by collecting the spectrum each minute for 60 to 90 minutes.
# human Y-79 cells = assay: TNF-α induced apoptosis of Y-79 cells (annexin V flow cytometry); format: cell-based; details: Y-79 cell line, E-TOPS 100 μg/ml, TNF-α 5.0 ng/ml, 6, 24 and 48 hours
# Method: The UV light induced apoptosis may be measured by a model in which apoptosis is induced by exposure to tumor necrosis factor alpha (TNF-α). […] Cultured human Y-79 cells were maintained at pH 7.4 in culture flasks in a mixture of amphotericin/penicillin/streptomycin treated (1% v/v) RPMI 1640 media with L-glutamine and 10% fetal bovine serum in an incubator under 10%-CO2/90%-air brood conditions at 37 degrees Celsius and 20% humidity. […] From this stock solution, 10 μl was added to 1 ml of the cell suspension solution so that the final concentration of ETOPS was 100 μg/ml of ETOPS. Human TNF-μ(10 μg/1 ml) was used to prepare serial media dilutions to obtain TNF-α concentrations of 5.0 ng/ml. Cell densities and viability were determined by trypan blue exclusion assay on a Zeiss inverted microscope to ensure cell concentrations prior to cytometric assaying. […]
# Flow cytometric methods were employed to take advantage of annexin V's reversible and calcium-dependent binding to negatively charged phosphatidylserine (PS) residues in a 1:50 annexin to PS ratio. […] Total samplings averaged 5000 cell events counted out of sample populations averaging well over 1.0×10^6 cells/ml with statistics and regression analysis given for each set of sample quadrants using CellQuest softvare. […]
# [9] = gold standard, previously shown; cited from earlier work
# mice = assay: Acute toxicity LD50 / survival rate in mice; format: in vivo; details: mice, dosage of 2.0 mmol/kg
# Text: (§2) As noted above, the practical, clinical application of unbound, small molecule nitroxides has been limited by the reduced activity in vivo and comparatively short in vivo half-life. The result of the reduced in vivo half-life is the need to administer a larger dose to achieve the same therapeutic or diagnostic effect.
# [10] = Acute toxicity LD50 / survival rate in mice; format: in vivo; details: mouse, in vivo
# Text: as §2
molecule,measurement,setting,value
"CC1(C)CC(=C(CC(=O)O)C(=O)O)CC(C)(C)N1[O] [TOPS, 2,2,6,6-tetramethyl-1-oxyl-piperidinene-4-succinate]",inhibition of peroxynitrite-induced (SIN-1) toxicity on cortical neurons,[1],dose dependent inhibition
same,inhibition of nitration of HPA by peroxynitrite,[2],inhibited
same,inhibition of hemoglobin-induced toxicity of cortical neurons,[3],dose dependent inhibition
same,partition coefficient (LogP),[4],−0.9
"CCOC(=O)CC(C(=O)OCC)=C1CC(C)(C)N([O])C(C)(C)C1 [DE-TOPS, Di-ethyl-2,2,6,6-tetramethyl-1-oxy-4-piperidylidene-succinate]",hydrolysis of DE-TOPS to TOPS,[5],near complete conversion
same,distribution in skin layers compared to tempone (1-D EPR spatial image),[6],enhanced visual distribution throughout the dermis and epidermis
same,inhibition of peroxynitrite-induced (SIN-1) toxicity on cortical neurons,[1],dose dependent inhibition
same,skin thickening induced by UVB (histopathology),"hairless mice; 100 mM in petroleum base, topical daily 10 minutes prior to UVB, 11 days, 200 mJ/cm2",dramatically reduces skin thickening
same,"UVB light induced skin thickening, hemorrhage, inflammation",hairless mice; applying pre and post radiation in mice,"reduces UVB light induced skin thickening, hemorrhage, inflammation"
same,"UVB induced skin lesion, chronic","hairless mice; same mice kept for 4 month, applied 2 hour before UVB radiation",inhibited
same,inhibition of nitration of HPA by peroxynitrite,[2],inhibited
same,UVB sensitivity of treated skin,Rhino mouse,not UVB sensitive
same,inhibition of hemoglobin-induced toxicity of cortical neurons,[3],dose dependent inhibition
same,EPR signal in urine compared with plasma,[7],stronger EPR signal
same,partition coefficient (LogP),[4],1.7
"monoethyl-2,2,6,6-tetramethyl-1-oxy-4-piperidylidene-succinate [E-TOPS]",inhibition of peroxynitrite-induced (SIN-1) toxicity on cortical neurons,[1],dose dependent inhibition
same,in vivo half-life compared to Tempol,"[8]; intravenous, intramuscular, oral and intraperitoneal administration at 200 mg/kg",increased in vivo half-life compared to Tempol
same,in vivo plasma half-life compared to Tempol,"[8]; mice, administered orally, 125 mg/kg E-TOPS and 80 mg/kg Tempol",extended
same,in vivo plasma half-life compared to Tempol,"[8]; mice, co-administrated intravenously",extended
same,time with substantially higher activity than Tempol in plasma,"[8]; mice, i.p., 125 mg/kg E-TOPS co-administered with Tempol",at least 80 minutes
same,in vivo plasma half-life compared to Tempol,"[8]; mice, intramuscular co-administration",dramatically extended over Tempol for at least 60 minutes
same,inhibition of nitration of HPA by peroxynitrite,[2],inhibited
same,apoptosis induced by TNF-α,human Y-79 cells,reduces apoptosis
same,inhibition of hemoglobin-induced toxicity of cortical neurons,[3],dose dependent inhibition
same,neuronal viability,"[3]; ETOPS at 10 uM, 1 uM, 0.1 uM",increased neuronal viability
"CC1(C)CC(O)CC(C)(C)N1[O] [Tempol, 4-hydroxy-2,2,6,6-tetramethylpiperidine-1-oxyl]",prevention of nitration of HPA by peroxynitrite in vitro,[9],prevent the nitration
same,half-life,"[8]; mouse, in vivo, ip, 80 mg/kg",> 40 min
same,survival rate,mice,zero survival rate
same,LD50,[10],375 mg/kg
